The term GI50 denotes the concentration giving 50% growth inhibition.

Each structure is given as a SMILES string.

Experimental findings from patent US10065990B2, “Cyclic peptide compound, and preparation method, pharmaceutical composition and use thereof” (HANGZHOU GUANYU BIO-MEDICAL CO., LTD, priority 2013, dated 2018) are described below.

One experiment deals with T1, HDAC7 (Homo sapiens, UniProt Q8WUI4).
T1 sequence (Q8WUI4 1-952): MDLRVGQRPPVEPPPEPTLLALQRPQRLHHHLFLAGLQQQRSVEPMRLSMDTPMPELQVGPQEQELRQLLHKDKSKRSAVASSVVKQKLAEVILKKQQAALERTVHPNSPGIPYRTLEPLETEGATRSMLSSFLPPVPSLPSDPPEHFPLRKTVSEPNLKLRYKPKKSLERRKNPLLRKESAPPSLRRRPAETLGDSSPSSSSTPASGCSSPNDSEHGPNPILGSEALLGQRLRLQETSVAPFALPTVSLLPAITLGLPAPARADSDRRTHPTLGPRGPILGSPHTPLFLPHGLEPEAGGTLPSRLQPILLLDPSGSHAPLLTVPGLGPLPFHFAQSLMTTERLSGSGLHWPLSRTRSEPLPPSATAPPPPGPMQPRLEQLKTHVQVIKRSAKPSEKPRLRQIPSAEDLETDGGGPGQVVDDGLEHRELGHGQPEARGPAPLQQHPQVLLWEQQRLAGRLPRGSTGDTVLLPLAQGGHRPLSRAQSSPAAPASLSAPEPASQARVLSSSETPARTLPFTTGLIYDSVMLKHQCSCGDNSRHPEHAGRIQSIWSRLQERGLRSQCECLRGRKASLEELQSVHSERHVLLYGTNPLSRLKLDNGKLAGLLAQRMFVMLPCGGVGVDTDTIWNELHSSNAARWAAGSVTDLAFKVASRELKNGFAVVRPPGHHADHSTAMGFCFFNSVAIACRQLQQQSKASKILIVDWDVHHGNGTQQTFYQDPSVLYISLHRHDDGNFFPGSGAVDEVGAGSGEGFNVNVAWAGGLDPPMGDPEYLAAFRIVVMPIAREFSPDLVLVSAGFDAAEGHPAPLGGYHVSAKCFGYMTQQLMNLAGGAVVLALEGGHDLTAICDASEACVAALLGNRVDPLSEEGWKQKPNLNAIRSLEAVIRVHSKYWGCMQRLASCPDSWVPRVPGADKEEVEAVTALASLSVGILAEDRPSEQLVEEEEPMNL
In words: HDAC biochemical activity measurement (fluorescent substrate deacetylation).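 Further: fluorogenic deacetylation assay using acetyl-lysine substrate at 20 µM, enzyme and compound incubated 30 min at 37 °C, then developer added, fluorescence read at 360/460 nm.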 As to conditions: HDAC7; 37° C. 30 minutes.

For experiment [1], the system named is A549 (human lung cancer cells). In words: MTT cancer cell growth inhibition. Type of experiment: cell-based. Conditions: Homo sapiens, A549, 72 h, A549 cells, MTT, 72 hours incubation; read-out: GI50 A54. In outline: (§1)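 Absorbance at 570 nm of DMSO-dissolved formazan, formed during a 4 h MTT incubation, served as the viability measure. Cells had been exposed 72 h to drug at 10^−5–10^−10 M final; GI50 was calculated from these readings.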

In experiment [2] the test system is BGC-823 (human gastric cancer cells). Nature of the experiment: MTT cancer cell growth inhibition. Conditions: Homo sapiens, BGC-823, 72 h, BGC-823 cells, MTT, 72 hours incubation; read-out: GI50 BG. Type of experiment: cell-based. In outline:
as §1

The subject of experiment [3] is Bel-7402 (human hepatoma cells). Nature of the experiment: MTT cancer cell growth inhibition. It counts as cell-based. As to conditions: Homo sapiens, Bel-7402, 72 h, MTT, 72 hours incubation, Bel-7402 cells; read-out: GI50 Bel-7402. In outline: as §1
Experiment [4] has as its system DU145 (human prostate cancer cells). Nature of the experiment: MTT cancer cell growth inhibition. As to conditions: Homo sapiens, DU-145, 72 h, DU145 cells, MTT, 72 hours incubation; read-out: GI50 Du1. Type of experiment: cell-based. In outline:
as §1

For experiment [5], the system named is H1975 (non-small cell lung adenocarcinoma). In words: MTT cancer cell growth inhibition. It counts as cell-based. Conditions: Homo sapiens, NCI-H1975, 72 h, MTT, 72 hours incubation, H1975 cells; read-out: GI50 H1975. Summed up: as §1
For experiment [6], the system named is HCC827 (human non-small cell lung cancer cells). In words: MTT cancer cell growth inhibition. As to conditions: Homo sapiens, HCC827, 72 h, MTT, 72 hours incubation, HCC827 cells; read-out: GI50 HCC827. It counts as cell-based. In outline: as §1
Experiment [7] relates to HT1080 (human fibrosarcoma cells). In words: MTT cancer cell growth inhibition. Type of experiment: cell-based. As to conditions: Homo sapiens, HT-1080, 72 h, HT1080 cells, MTT, 72 hours incubation; read-out: GI50 HT1. In outline:
as §1

The test system of experiment [8] is Hela (human cervical cancer cells). In words: MTT cancer cell growth inhibition. It counts as cell-based. Conditions: Homo sapiens, HeLa, 72 h, Hela cells, MTT, 72 hours incubation; read-out: GI50 Hela. Summed up:
as §1

Experiment [9] has as its system Huh-7 (human hepatoma cells). Nature of the experiment: MTT cancer cell growth inhibition. As to conditions: Homo sapiens, Huh-7, 72 h, MTT, 72 hours incubation, Huh-7 cells; read-out: GI50 Huh-7. Type of experiment: cell-based. In outline: as §1
Experiment [10] deals with K562 (human leukemia cells). Nature of the experiment: MTT cancer cell growth inhibition. It counts as cell-based. As to conditions: Homo sapiens, K562, 72 h, MTT, 72 hours incubation, K562 cells; read-out: GI50 K562. Summed up:
as §1

Experiment [11] deals with KBM-5 (human chronic myelogenous leukemia). Nature of the experiment: MTT cancer cell growth inhibition. Type of experiment: cell-based. As to conditions: Homo sapiens, KBM5, 72 h, MTT, 72 hours incubation, KBM-5 cells; read-out: GI50 KBM-5. In outline: as §1
Experiment [12] deals with KBM5-T315I (human chronic myelogenous leukemia). Nature of the experiment: MTT cancer cell growth inhibition. It counts as cell-based. As to conditions: Homo sapiens, 72 h, MTT, 72 hours incubation, KBM5-T315I cells; read-out: GI50 KBM5-T315I. In outline: as §1
Experiment [13] concerns MCF-7 (human breast cancer cells). Nature of the experiment: MTT cancer cell growth inhibition. It counts as cell-based. Conditions: Homo sapiens, MCF7, 72 h, MCF-7 cells, 72 hours incubation, read-out: GI50 MCF. Summed up:
as §1

Experiment [14] deals with MDA-MB-231 (breast cancer cells). In words: MTT cancer cell growth inhibition. It counts as cell-based. As to conditions: Homo sapiens, MDA-MB-231, 72 h, read-out: GI50 MDA-MB-231, MTT, 72 hours incubation, MDA-MB-231 cells. Summed up:
as §1

The test system of experiment [15] is MOLT-4 (human acute lymphoblastic leukemia cells). Nature of the experiment: MTT cancer cell growth inhibition. Type of experiment: cell-based. As to conditions: Homo sapiens, MOLT-4, 72 h, MOLT-4 cells, MTT, 72 hours incubation; read-out: GI50 Mol. In outline: as §1
Experiment [16] concerns N-87 (human gastric cancer cells). In words: MTT cancer cell growth inhibition. Type of experiment: cell-based. Conditions: Homo sapiens, 72 h, MTT, 72 hours incubation, N-87 cells; read-out: GI50 N-87. Summed up:
as §1

The test system of experiment [17] is PANC-1 (Pac-1, human pancreatic cancer cells). In words: MTT cancer cell growth inhibition. Type of experiment: cell-based. As to conditions: Homo sapiens, PANC-1, 72 h, PANC-1 cells, MTT, 72 hours incubation; read-out: GI50 PAN. In outline:
as §1

For experiment [18], the system named is SGC-7901 (human gastric cancer cells). In words: MTT cancer cell growth inhibition. Type of experiment: cell-based. As to conditions: Homo sapiens, SGC-7901, 72 h, MTT, 72 hours incubation, SGC-7901 cells; read-out: GI50 SGC-7901. In outline:
as §1

Experiment [19] relates to U937 (human leukemia cells). In words: MTT cancer cell growth inhibition. Conditions: Homo sapiens, U-937, 72 h, U937 cells, MTT, 72 hours incubation; read-out: GI50 U93. It counts as cell-based. Summed up: as §1
Experiment [20] concerns lncap (prostate cancer cells). In words: MTT cancer cell growth inhibition. Type of experiment: cell-based. Conditions: Homo sapiens, LNCaP, 72 h, lncap cells, MTT, 72 hours incubation; read-out: GI50 lnca. In outline:
as §1

In the case of `C/C=C1\NC(=O)c2ccc(SC)c(n2)CNC(=O)C[C@@H](/C=C/CCSC(=O)CCC)OC(=O)[C@H](C(C)C)NC1=O` [Compound 161], the “IC50 HDAC7” value against HDAC7 was “no activity”. In addition, the concentration for 50% growth inhibition (GI50) came to 80 nM in experiment [1]; 20 nM in experiment [2]; 47 nM in experiment [3]; 20 nM in experiment [4]; 57 nM in experiment [5]; 65 nM in experiment [6]. Further, the concentration for 50% growth inhibition (GI50) was found to be 50 nM in experiment [7]; 10 nM in experiment [8]; 79 nM in experiment [9]; 31 nM in experiment [10]; 13 nM in [11]; 12 nM in experiment [12]. In addition, the GI50 in experiment [13] was 70 nM; in [14] it was 46 nM; in [15], 30 nM; in experiment [16], 37 nM; in experiment [17], 10 nM; in experiment [18], 91 nM. The GI50 was found to be 60 nM in [19] and 70 nM in experiment [20].

As to `C/C=C1\NC(=O)c2cc(SC)cc(n2)CNC(=O)C[C@@H](/C=C/CCSC(C)=O)OC(=O)[C@H](CCCCNC(=O)OCC2c3ccccc3-c3ccccc32)NC1=O` [Compound 196], at HDAC7, the “IC50 HDAC7” value is “no activity”. Further, the GI50 in experiment [1] amounted to 20 nM; in [2] it was 50 nM; in experiment [3], 89 nM; in experiment [4], 130 nM; in experiment [5], 62 nM; in experiment [6] it was 64 nM. The GI50 came out at 70 nM in experiment [7]; 80 nM in experiment [8]; 23 nM in [9]; 58 nM in experiment [10]; 28 nM in [11]; 93 nM in experiment [12]. Besides, the GI50 was 60 nM in experiment [13]; 85 nM in experiment [14]; 30 nM in experiment [15]; 56 nM in experiment [16]; 60 nM in experiment [17]; 45 nM in [18]. Also, the GI50 in experiment [19] and in [20] was 60 nM each time.

On to `C/C=C1\NC(=O)c2ccc(SCCC)c(n2)CNC(=O)C[C@@H](/C=C/CCSC(=O)CCCCCCC)OC(=O)[C@H](CC)NC1=O` [Compound 176], for which the “IC50 HDAC7” value against HDAC7 is reported as “no activity”. Besides, the GI50 in experiment [1] is 80 nM; in experiment [2], 20 nM; in experiment [3], 31 nM; in [4], 50 nM; in experiment [5], 31 nM; in experiment [6], 38 nM. In addition, the GI50 stood at 30 nM in experiment [7]; 50 nM in [8]; 31 nM in experiment [9]; 21 nM in experiment [10]; 34 nM in experiment [11]; 38 nM in [12]. For the same compound, the GI50 in experiment [13] is 10 nM; in experiment [14], 32 nM; in experiment [15] it was 50 nM; in [16] it was 28 nM; in [17] it was 60 nM; in experiment [18] it was 31 nM. The concentration for 50% growth inhibition (GI50) in experiment [19] was found to be 10 nM; in experiment [20] it was 30 nM.

`C/C=C1\NC(=O)c2nc(ccc2SC)CNC(=O)C[C@@H](/C=C/CCSC(C)=O)OC(=O)[C@H](Cc2cccc3ccccc23)NC1=O` [Compound 198]: the “IC50 HDAC7” value against HDAC7 is given as “no activity”. The GI50 came to 50 nM in experiment [1]; 70 nM in experiment [2]; 63 nM in [3]; 50 nM in experiment [4]; 31 nM in experiment [5]; 57 nM in experiment [6]. Also, the concentration for 50% growth inhibition (GI50) stood at 20 nM in experiment [7]; 30 nM in experiment [8]; 47 nM in [9]; 79 nM in experiment [10]; 99 nM in experiment [11]; 43 nM in experiment [12]. For the same compound, the GI50 in [13] amounted to 110 nM; in experiment [14], 45 nM; in [15], 20 nM; in [16] it was 38 nM; in experiment [17], 30 nM; in experiment [18] it was 16 nM. Also, the GI50 in experiment [19] came out at 50 nM; in experiment [20], 90 nM.

As to `C/C=C1\NC(=O)c2ccc(SC)c(n2)CNC(=O)C[C@@H](/C=C/CCSC(=O)CCCCC)OC(=O)[C@H](C(C)C)NC1=O` [Compound 155], the “IC50 HDAC7” value at HDAC7 is listed as “no activity”. Further, the GI50 amounted to 40 nM in [1]; 40 nM in experiment [2]; 41 nM in experiment [3]; 50 nM in [4]; 23 nM in experiment [5]; 23 nM in [6]. In addition, the GI50 in [7] is 90 nM; in experiment [8], 40 nM; in experiment [9], 38 nM; in experiment [10], 75 nM; in [11] it was 35 nM; in [12] it was 56 nM. In addition, the GI50 stood at 50 nM in experiment [13]; 11 nM in [14]; 90 nM in experiment [15]; 32 nM in [16]; 40 nM in experiment [17]; 33 nM in [18]. The 50% growth inhibitory concentration (GI50) in experiment [19] and in [20] was 40 nM each time.
